Results published in PubChem BioAssay AID1963858 (Molecular Pharmacology Branch, DTP, NCI, 2024).

System: HOP-62 multicell spheroids with HUVEC/MSC, viability
Test: Anticancer human tumor HOP-62 cell line growth inhibition [KRAS2];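 also: viability read after a week of compound exposure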;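 as to viability, T/C: 100% = DMSO vehicle-treated spheroids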
Settings: for IC50: curve of first compound; for viability, T/C: stronger effect = lower value
How it was run: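 Combination screen of spheroid viability in tumor-cell co-cultures with endothelial (HUVEC) and mesenchymal stem cell stroma. Each agent was tested in half-log dilutions, topping at clinical Cmax or at 10 microM without a known Cmax.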

## CC1OCC2(CCN(c3cnc(Sc4ccnc(N)c4Cl)c(N)n3)CC2)C1N (stereo not given) + COc1cc2nc(C)nc(NC(C)c3cc(N)cc(C(F)(F)F)c3)c2cc1OC1CCOC1
Second compound 0.1 µM
  IC50: > 10000 nM
Second compound 0.316 µM
  IC50: > 10000 nM
Second compound 1 µM
  IC50: 1220 nM
Second compound 3.16 µM
  IC50: 510 nM
Second compound 10 µM
  IC50: 51.9 nM
Second compound 0.1 µM, first compound 0.0316 µM
  viability, T/C: 89.6%
Second compound 0.1 µM, first compound 0.1 µM
  viability, T/C: 88.9%
Second compound 0.1 µM, first compound 0.316 µM
  viability, T/C: 79.8%
Second compound 0.1 µM, first compound 1 µM
  viability, T/C: 66%
Second compound 0.1 µM, first compound 3.16 µM
  viability, T/C: 59.5%
Second compound 0.1 µM, first compound 10 µM
  viability, T/C: 59.5%
Second compound 0.316 µM, first compound 0.0316 µM
  viability, T/C: 98.4%
Second compound 0.316 µM, first compound 0.1 µM
  viability, T/C: 96.1%
Second compound 0.316 µM, first compound 0.316 µM
  viability, T/C: 76.2%
Second compound 0.316 µM, first compound 1 µM
  viability, T/C: 68.9%
Second compound 0.316 µM, first compound 3.16 µM
  viability, T/C: 55.5%
Second compound 0.316 µM, first compound 10 µM
  viability, T/C: 52.8%
Second compound 1 µM, first compound 0.0316 µM
  viability, T/C: 99.4%
Second compound 1 µM, first compound 0.1 µM
  viability, T/C: 77.9%
Second compound 1 µM, first compound 0.316 µM
  viability, T/C: 61.2%
Second compound 1 µM, first compound 1 µM
  viability, T/C: 53.6%
Second compound 1 µM, first compound 3.16 µM
  viability, T/C: 41.8%
Second compound 1 µM, first compound 10 µM
  viability, T/C: 40.3%
Second compound 3.16 µM, first compound 0.0316 µM
  viability, T/C: 82%
Second compound 3.16 µM, first compound 0.1 µM
  viability, T/C: 73.8%
Second compound 3.16 µM, first compound 0.316 µM
  viability, T/C: 59.4%
Second compound 3.16 µM, first compound 1 µM
  viability, T/C: 38.4%
Second compound 3.16 µM, first compound 3.16 µM
  viability, T/C: 25.7%
Second compound 3.16 µM, first compound 10 µM
  viability, T/C: 31.1%
Second compound 10 µM, first compound 0.0316 µM
  viability, T/C: 58%
Second compound 10 µM, first compound 0.1 µM
  viability, T/C: 40.1%
Second compound 10 µM, first compound 0.316 µM
  viability, T/C: 26.9%
Second compound 10 µM, first compound 1 µM
  viability, T/C: 23.7%
Second compound 10 µM, first compound 3.16 µM
  viability, T/C: 20.3%
Second compound 10 µM, first compound 10 µM
  viability, T/C: 18.6%
